Laboratory results from patent publication US5885968A, “Triantennary cluster glycosides, their preparation and use” (Rijksuniversiteit te Leiden, priority 1992, dated 1999).

Legend:
[1] = tested on: rats; experiment: In vivo behaviour of LDL charged with glycolipid after intravenous injection into rats; parameters: species or system rat
Description: The so prepared compound TG(20 Å)-chol (formula 20): [drawing 22] can also be used to direct LDL to the hepatic parenchymal cell. To investigate this, isolated low-density lipoprotein was charged with TG(20 Å)-chol according to a procedure that is known per se and the in vivo behaviour of the particle was studied. […] This then leads to a stabilization of the LDL level in the bloodstream after a few minutes. Accumulation of TG(20 Å)-chol in LDL, then, changes the physiological rate of LDL. The complex is taken up by the liver via a galactose-specific route. […] Now it can be verified whether the complex is taken up by the parenchymal or by the Kupffer cell on the liver. […] This is an indication that charging with this compound leads to liver uptake via the asialoglycoprotein receptor in the parenchymal cell.

[2] = tested on: rats; experiment: In vivo fate of lipoprotein (a) charged with glycolipid in rats; parameters: species or system rat
Description: The so prepared TG(20 Å)-chol (formula 20): [drawing 24] can also be used to direct apo(a) to the hepatic parenchymal cell. High levels of lp(a) are correlated with the occurence of coronary and vascular diseases. To date, an adequate clinical therapy to alleviate the pathogenesis is not available. To investigate whether TG(20 Å)C can be used to stimulate the hepatic uptake and processing of lp(a) this, isolated lp(a) was charged with TG(20 Å)-chol according to a procedure that is known per se and the in vivo behaviour of the particle was studied. Lp(a) (50 μg) in PBS was incubated at 20° C. for 30 min with 0, 5, 15 and 50 μg TG(20 Å) (-chol). This charge led to a changed behaviour of the apo(a) after intravenous injection into rats. This is illustrated in FIG. 8. […] On account of the high […] of TG(20 Å)-chol, very rapidly an exchange of this compound occurs between lp(a) and other lipoproteins and lipid compartments. This then leads to a stabilization of the lp(a) level in the bloodstream after a few minutes.
^125 I-Lp(a) (50 μg) was mixed with 50 μg of TG(20 Å)C or TG(4 Å)C in 500 μl PBS. After 30 min at room temperature, the mixtures were injected into rats at a dose of 50 μg of apolipoprotein/kg body weight. Ten minutes after injection, parenchymal, endothelial and Kupffer cells were isolated from the liver and counted for radioactivity. Values are expressed as 10-3.% of the injected dose per mg of cellular protein and are means of 3 experiments ± s.e.m.

[3] = tested on: rats; experiment: Biliary secretion in catheterized rats after intravenous injection; format: in vivo, rat; conditions: 0.56 mg i.v., FIG. 5
Method: Intravenous injection of TG(20 Å)C (0.56 mg, dissolved in phosphate buffered saline) in rats, provided with catheters in duodenum, bile-duct and heart vene, also enhances the biliary secretion of bile acids from the liver leaving the biliary flow and the biliary secretion of cholesterol unaltered. Apparently, the TG(20 Å)C-induced increase in the uptake of lipoprotein-derived cholesterol is efficiently coupled to bile-acid secretion in rats. This might have important implications for potential application of TG(20 Å)C as a hypocholesterolemic therapeutic. (See FIG. 5.)

[4] = tested on: rats; experiment: Serum cholesterol lowering after intravenous injection in rats; format: in vivo, rat
Method: This was verified as follows. Male rats (250-300 g) were anesthetized by means of ether, whereafter 500 gl PBS, having dissolved therein 0.56 mg, 0.18 mg, 0.056 mg or 0 mg TG(20 Å)-chol (formula 20) or 0.56 mg tris-glu-chol (formula 21): [drawing 19] was injected into the vena penis. At the times indicated in FIG. 3, blood samples of 300 μl were taken by means of orbital puncture. The blood samples were centrifuged (5 min; 1500 g) and the serum was used for a cholesterol assay by means of the CHOD-PAP kit of Boehringer Mannheim. 24 Hours after injection the rat was bled. The blood was centrifuged whereafter the serum was pipeted. Then the serum was subjected to gradient density ultracentrifugation and the various lipoprotein fractions were isolated: HDL (1.21<d<1.05), LDL (1.050<d<1.019), IDL (1.019<d<1.006) and VLDL (d<1.006). Finally, the total cholesterol concentrations of these lipoprotein fractions were assayed by means of the CHOD-PAP kit.

[5] = 125I-Lp(a) 50 μg + 50 μg glycolipid, rats, 10 min after injection, mean ± s.e.m., 3 experiments

CC(C)CCC[C@@H](C)[C@H]1CC[C@H]2[C@@H]3CC=C4C[C@@H](OC(=O)CNC(=O)CCCCC(=O)NCC(=O)NC(COCOCCOCCOCCOCCO[C@@H]5O[C@H](CO)[C@H](O)[C@H](O)[C@H]5O)(COCOCCOCCOCCOCCO[C@@H]5O[C@H](CO)[C@H](O)[C@H](O)[C@H]5O)COCOCCOCCOCCOCCO[C@@H]5O[C@H](CO)[C@H](O)[C@H](O)[C@H]5O)CC[C@]4(C)[C@H]3CC[C@]12C [TG(20 Å)-chol, N,N-[tris-O-(3,6,9-trioxaundecanyl-β-D-galactopyranosyl)methoxymethyl]methyl-N^α -(1-(6-(5-cholesten-3β-yloxy)glycyl)adipyl)glycinamide]
Effect of asialofetuin preinjection on uptake of charged LDL ([1]; 50 mg/kg asialofetuin 1 min before injection): significant inhibition of the uptake by the liver parenchymal cell | Clearance from bloodstream and liver uptake of charged 125I-LDL ([1]; LDL 50 μg charged with 5, 15, 50 μg, i.v. rats, FIG. 6): cleared and incorporated into the liver much faster | Liver cell type location of charged LDL taken up ([1]; rats, FIG. 7): largely located in the parenchymal cell | Effect of N-acetyl-galactosamine preinjection on induced hepatic uptake of 125I-lp(a) ([2]; 150 mg N-acetyl-galactosamine, rat, data not shown): can be inhibited | Contribution to hepatic uptake of Lp(a), EC (endothelial cells) [2, 5]: 8.3 ± 2% | Contribution to hepatic uptake of Lp(a), KC (Kupffer cells) [2, 5]: 37.3 ± 9% | Clearance from bloodstream and liver uptake of charged apo(a)/lp(a) particles ([2]; Lp(a) 50 μg charged with 5, 15, 50 μg, i.v. rats, FIG. 8): cleared and incorporated into the liver much faster | Biliary flow [3]: unaltered | Biliary secretion of bile acids [3]: enhances | Biliary secretion of cholesterol [3]: unaltered | Cholesterol level 24 hours after single administration ([4]; 0.56 mg, 24 hours): has not returned to the control value | LDL level ([4]; 24 h after injection): likewise lowered | Concentrations of the other lipoproteins ([4]; 24 h after injection (IDL, VLDL)): not significantly affected | Serum HDL level ([4]; 24 h after injection, FIG. 4): decreases dose-dependently and significantly | Total serum cholesterol level ([4]; injection into vena penis, 0.056-0.56 mg, FIG. 3): decreases | Increase in potency compared with tris-gal-chol ([4]; serum cholesterol lowering, comparison with ref 15): ≥ 25 factor
